From patent US20120295292A1, “Detecting Protein Arginine Deiminase (PAD) Activity in Human Tissues and Sera” (University of South Carolina, priority 2011, published 2012)

Tested on: PAD
Experiment: PAD activity in serum of mice with DSS-induced colitis (BAEE substrate, COLDER citrulline detection)
Format: in vivo
Settings: serum of mice given 2% DSS for 1 week; Cl-amidine treated vs no treatment; p>0.005 as printed; FIG. 2A
Procedure: A mouse model of colitis was used to develop a method for detecting disease incidence and disease severity by measuring the PAD activity present in serum. In this model, mice were […] or orally administered 2% dextran sulfate sodium (DSS) for 1 week to induce colitis. This model induced moderate to severe colon inflammation, shortening of the colon, and ulcer formation. The efficacy was tested of the PAD inhibitor, Cl-amidine, to determine if PAD activity was diminished in a group of Cl-amidine treated mice versus a group receiving no treatment with the PAD inhibitor. As a control, mice were given water without 2% DSS.
To determine PAD activity levels within the mice, serum samples were collected, then resuspended in Homogenization Buffer (50 mM HEPES pH 7.6, 10% glycerol, 1% NP-40, 1 mM PMSF, and 2 mM DTT) and homogenized using a glass dounce homogenizer. Serum samples were then centrifuged at 10,600 g for 20 min to remove cellular debris. The protein concentration was measured using the Lowry assay. PAD activity was determined by incubating serum samples in a Reaction Buffer (100 mM 4-(2-hydroxyethyl)-1-piperazineethanesulfonic acid (“HEPES”) pH 7.6, 500 mM NaCl, […] (“DTT”), 100 mM CaCl2, and 100 mM N-benzoyl-L-arginine ethyl ester (“BAEE”)) as substrate for the PAD. Incubation was carried out for 2 h at 37° C. in duplicate before freezing in liquid nitrogen. […]

NC(=O)[C@H](CCCN=C(N)CCl)NC(=O)c1ccccc1 [Cl-amidine]
decrease in PAD activity as compared to the no treatment mice: greater than 2.3 fold
